US11739098B2 (BRISTOL-MYERS SQUIBB COMPANY, priority 2017, dated 2023)

Legend:
Format in all cases: cell-based
[1] = target: T1, human TLR7 (Homo sapiens, UniProt Q9NYK1); assay: TLR7 inhibition reporter assay (HEK-Blue cells, SEAP reporter, gardiquimod stimulation); settings: HEK-Blue cells overexpressing human TLR7, SEAP reporter, gardiquimod 7.5 μM
T1 construct: host or cells: HEK-Blue cells (HEK293-derived reporter line)
T1 sequence (Q9NYK1 27-1049): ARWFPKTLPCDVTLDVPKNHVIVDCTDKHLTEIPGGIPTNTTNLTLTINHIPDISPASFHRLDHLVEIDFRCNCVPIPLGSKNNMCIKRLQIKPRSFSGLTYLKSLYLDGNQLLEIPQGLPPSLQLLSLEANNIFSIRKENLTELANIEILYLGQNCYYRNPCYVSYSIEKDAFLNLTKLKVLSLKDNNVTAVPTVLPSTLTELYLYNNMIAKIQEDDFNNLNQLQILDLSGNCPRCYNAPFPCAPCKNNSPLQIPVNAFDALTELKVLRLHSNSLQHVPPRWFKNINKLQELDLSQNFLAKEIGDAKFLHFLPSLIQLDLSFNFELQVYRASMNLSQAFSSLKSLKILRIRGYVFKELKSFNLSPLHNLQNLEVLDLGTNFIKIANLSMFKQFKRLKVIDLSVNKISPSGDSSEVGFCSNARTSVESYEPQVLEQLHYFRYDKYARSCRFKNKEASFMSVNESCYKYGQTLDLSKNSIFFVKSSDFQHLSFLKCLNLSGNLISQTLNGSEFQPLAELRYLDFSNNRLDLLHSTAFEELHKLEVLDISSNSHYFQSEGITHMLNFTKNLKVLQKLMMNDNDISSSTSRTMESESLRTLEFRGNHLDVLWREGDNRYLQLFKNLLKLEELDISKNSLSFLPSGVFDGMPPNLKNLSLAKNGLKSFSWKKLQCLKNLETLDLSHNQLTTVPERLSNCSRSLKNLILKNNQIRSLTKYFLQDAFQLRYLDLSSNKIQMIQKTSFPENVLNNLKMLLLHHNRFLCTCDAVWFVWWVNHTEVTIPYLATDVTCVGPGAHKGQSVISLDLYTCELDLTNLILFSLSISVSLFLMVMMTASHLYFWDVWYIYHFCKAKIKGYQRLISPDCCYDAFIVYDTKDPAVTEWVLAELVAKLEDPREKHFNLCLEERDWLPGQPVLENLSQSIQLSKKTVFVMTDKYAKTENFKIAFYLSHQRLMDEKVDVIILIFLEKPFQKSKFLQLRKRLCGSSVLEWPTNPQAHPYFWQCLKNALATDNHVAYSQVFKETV
Method in brief: (§1)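 After 22 h at 37 °C, SEAP secretion was measured from human TLR7-, TLR8- or TLR9-expressing HEK-Blue reporter cells given compound (0.05 nM–50 μM) 30 min before agonist: 7.5 μM gardiquimod, 15.9 μM R848 or 5 nM ODN2006 respectively. Percent inhibition referenced to agonist-plus-DMSO and known-inhibitor wells.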

[2] = target: T2, human TLR8 (Homo sapiens, UniProt Q9NR97); assay: TLR8 inhibition reporter assay (HEK-Blue cells, SEAP reporter, R848 stimulation); settings: HEK-Blue cells overexpressing human TLR8, SEAP reporter, R848 15.9 μM
T2 construct: host or cells: HEK-Blue cells (HEK293-derived reporter line)
T2 sequence (Q9NR97 27-1041): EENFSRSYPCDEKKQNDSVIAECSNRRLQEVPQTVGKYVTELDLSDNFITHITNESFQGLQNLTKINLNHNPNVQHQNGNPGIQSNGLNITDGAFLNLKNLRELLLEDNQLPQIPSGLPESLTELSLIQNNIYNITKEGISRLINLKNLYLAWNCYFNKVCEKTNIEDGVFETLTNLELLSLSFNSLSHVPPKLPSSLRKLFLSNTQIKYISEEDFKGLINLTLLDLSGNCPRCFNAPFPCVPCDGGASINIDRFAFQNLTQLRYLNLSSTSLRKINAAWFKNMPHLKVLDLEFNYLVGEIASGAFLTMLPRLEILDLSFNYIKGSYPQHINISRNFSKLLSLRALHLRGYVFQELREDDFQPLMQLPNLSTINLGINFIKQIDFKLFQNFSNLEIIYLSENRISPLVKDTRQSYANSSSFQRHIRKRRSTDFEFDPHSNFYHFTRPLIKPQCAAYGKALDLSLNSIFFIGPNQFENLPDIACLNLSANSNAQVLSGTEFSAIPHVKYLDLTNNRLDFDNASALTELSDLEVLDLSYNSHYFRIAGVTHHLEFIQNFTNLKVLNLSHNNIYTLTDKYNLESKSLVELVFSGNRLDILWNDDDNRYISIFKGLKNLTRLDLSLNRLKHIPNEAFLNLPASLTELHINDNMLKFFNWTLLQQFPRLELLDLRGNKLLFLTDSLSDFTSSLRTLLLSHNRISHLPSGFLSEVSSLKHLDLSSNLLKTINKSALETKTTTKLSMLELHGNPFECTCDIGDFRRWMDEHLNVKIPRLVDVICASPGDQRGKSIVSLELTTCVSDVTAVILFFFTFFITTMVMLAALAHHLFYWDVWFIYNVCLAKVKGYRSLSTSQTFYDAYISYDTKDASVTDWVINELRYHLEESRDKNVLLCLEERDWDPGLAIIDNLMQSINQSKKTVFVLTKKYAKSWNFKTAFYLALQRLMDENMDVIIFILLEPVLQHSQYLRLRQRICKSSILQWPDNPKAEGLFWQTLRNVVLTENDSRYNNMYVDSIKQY
Method in brief: as §1

[3] = target: T3, human TLR9 (Homo sapiens, UniProt Q9NR96); assay: TLR9 inhibition reporter assay (HEK-Blue cells, SEAP reporter, ODN2006 stimulation); settings: HEK-Blue cells overexpressing human TLR9, SEAP reporter, ODN2006 5 nM
T3 construct: host or cells: HEK-Blue cells (HEK293-derived reporter line)
T3 sequence (Q9NR96 26-1032): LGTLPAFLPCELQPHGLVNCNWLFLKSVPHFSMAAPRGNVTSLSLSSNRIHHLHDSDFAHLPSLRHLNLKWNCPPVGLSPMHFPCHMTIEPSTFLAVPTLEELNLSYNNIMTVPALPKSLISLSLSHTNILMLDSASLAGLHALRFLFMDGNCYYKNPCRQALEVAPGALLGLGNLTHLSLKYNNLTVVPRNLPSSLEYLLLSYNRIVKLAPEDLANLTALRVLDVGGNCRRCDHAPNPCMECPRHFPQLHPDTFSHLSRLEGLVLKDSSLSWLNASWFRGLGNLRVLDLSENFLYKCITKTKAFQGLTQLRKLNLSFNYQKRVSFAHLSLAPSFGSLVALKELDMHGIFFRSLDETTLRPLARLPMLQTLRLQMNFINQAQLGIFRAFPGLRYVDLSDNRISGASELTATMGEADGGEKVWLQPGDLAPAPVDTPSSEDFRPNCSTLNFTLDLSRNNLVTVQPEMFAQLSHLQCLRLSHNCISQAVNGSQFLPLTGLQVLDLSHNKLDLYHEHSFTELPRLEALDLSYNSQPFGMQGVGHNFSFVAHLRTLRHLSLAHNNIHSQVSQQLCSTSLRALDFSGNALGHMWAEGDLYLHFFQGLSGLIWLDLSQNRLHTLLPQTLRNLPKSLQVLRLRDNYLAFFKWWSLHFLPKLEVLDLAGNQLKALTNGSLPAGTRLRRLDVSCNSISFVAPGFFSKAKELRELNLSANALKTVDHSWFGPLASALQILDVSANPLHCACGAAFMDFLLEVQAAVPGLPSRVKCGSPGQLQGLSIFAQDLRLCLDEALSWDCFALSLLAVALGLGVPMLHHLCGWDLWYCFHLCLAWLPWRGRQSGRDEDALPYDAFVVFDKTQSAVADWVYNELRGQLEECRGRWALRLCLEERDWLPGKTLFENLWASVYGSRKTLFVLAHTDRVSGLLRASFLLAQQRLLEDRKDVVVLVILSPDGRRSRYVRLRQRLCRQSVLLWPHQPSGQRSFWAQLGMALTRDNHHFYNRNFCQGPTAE
Method in brief: as §1

| IC50 [1] [µM] | IC50 [2] [µM] | IC50 [3] [µM] | Structure (SMILES) |
| --- | --- | --- | --- |
| < 0.1 | < 0.1 | 1 to 50 | Cc1nnn2ccc(-c3[nH]c4ccc(C5CCN(Cc6ccn(C)n6)CC5)cc4c3C(C)C)cc12 [Example 888, 5-(3-isopropyl-5-(1-((1-methyl-1H-pyrazol-3-yl)methyl)piperidin-4-yl)-1H-indol-2-yl)-3-methyl-[1,2,3]triazolo[1,5-a]pyridine] |
| < 0.1 | < 0.1 | 1 to 50 | CCC(C)NCC(=O)N1CCC(c2ccc3[nH]c(-c4ccnc5[nH]ncc45)c(C(C)C)c3c2)CC1 (stereo not drawn) [Example 583, 2-(sec-butylamino)-1-(4-(3-isopropyl-2-(1H-pyrazolo[3,4-b]pyridin-4-yl)-1H-indol-5-yl)piperidin-1-yl)ethan-1-one] |
| < 0.1 | < 0.1 | 1 to 50 | Cc1ccnc2[nH]cc(-c3[nH]c4ccc(C5CCN(C6CCOCC6)CC5)cc4c3C(C)C)c12 [Example 690, 3-(3-isopropyl-5-(1-(tetrahydro-2H-pyran-4-yl)piperidin-4-yl)-1H-indol-2-yl)-4-methyl-1H-pyrrolo[2,3-b]pyridine] |
| < 0.1 | < 0.1 | 1 to 50 | Cc1cc(-c2[nH]c3ccc(C4CCN(C5CCOCC5)CC4)cc3c2C(C)C)nn2ncnc12 [Example 686, 6-(3-isopropyl-5-(1-(tetrahydro-2H-pyran-4-yl)piperidin-4-yl)-1H-indol-2-yl)-8-methyl-[1,2,4]triazolo[1,5-b]pyridazine] |
| 1 to 50 | < 0.1 | < 0.1 | Cc1c(-c2ncnn3cccc23)[nH]c2ccc(C3CCN(C4CCN(C(C)C)CC4)CC3)cc12 [Example 806, 4-(5-(1′-isopropyl-[1,4′-bipiperidin]-4-yl)-3-methyl-1H-indol-2-yl)pyrrolo[2,1-f][1,2,4]triazine] |
| < 0.1 | < 0.1 | 1 to 50 | CC(C)c1c(-c2ccnc3[nH]ccc23)[nH]c2ccc(C3CCN(C(=O)CN(C)C)CC3)cc12 [Example 564, 2-(dimethylamino)-1-(4-(3-isopropyl-2-(1H-pyrrolo[2,3-b]pyridin-4-yl)-1H-indol-5-yl)piperidin-1-yl)ethan-1-one] |
| 0.1 to 1 | < 0.1 | 1 to 50 | CCc1c(-c2ccnc3[nH]ncc23)[nH]c2ccc(C3CCN(Cc4coc(C)n4)CC3)cc12 [Example 917, 4-((4-(3-ethyl-2-(1H-pyrazolo[3,4-b]pyridin-4-yl)-1H-indol-5-yl)piperidin-1-yl)methyl)-2-methyloxazole] |
| 0.1 to 1 | < 0.1 | 0.1 to 1 | CC(C)c1c(-c2ccc3cnnn3c2)[nH]c2ccc(C3CCN(C4CCOCC4)CC3)cc12 [Example 695, 6-(3-isopropyl-5-(1-(tetrahydro-2H-pyran-4-yl)piperidin-4-yl)-1H-indol-2-yl)-[1,2,3]triazolo[1,5-a]pyridine] |

The next lines start with the molecule.

| Structure (SMILES) | IC50 [1] [µM] | IC50 [2] [µM] | IC50 [3] [µM] |
| --- | --- | --- | --- |
| CC(C)c1c(-c2cnc3ncnn3c2)[nH]c2ccc(C3CCN(CC(=O)N(C)C)CC3)cc12 [Example 422, 2-(4-(2-([1,2,4]triazolo[1,5-a]pyrimidin-6-yl)-3-isopropyl-1H-indol-5-yl)piperidin-1-yl)-N,N-dimethylacetamide] | < 0.1 | 0.1 to 1 | 1 to 50 |
| CC(C)c1c(-c2ccn3nccc3c2)[nH]c2ccc(C3CCN(CC(=O)N(C)C)CC3)cc12 [Example 441, 2-(4-(3-isopropyl-2-(pyrazolo[1,5-a]pyridin-5-yl)-1H-indol-5-yl)piperidin-1-yl)-N,N-dimethylacetamide] | < 0.1 | < 0.1 | 1 to 50 |
| Cc1cn2c(C)cc(-c3[nH]c4ccc(C5CCN(C(=O)CN(C)C)CC5)cc4c3C(C)C)cc2n1 [Example 499, 2-(dimethylamino)-1-(4-(2-(2,5-dimethylimidazo[1,2-a]pyridin-7-yl)-3-isopropyl-1H-indol-5-yl)piperidin-1-yl)ethan-1-one] | 0.1 to 1 | 1 to 50 | 0.1 to 1 |
| Cc1cc(-c2[nH]c3ccc(C4CCNCC4)cc3c2C(C)C)c2[nH]ncc2n1 [Example 49, 7-(3-isopropyl-5-(piperidin-4-yl)-1H-indol-2-yl)-5-methyl-1H-pyrazolo[4,3-b]pyridine] | < 0.1 | < 0.1 | 1 to 50 |
| Cc1cc(-c2[nH]c3ccc(C4CCNCC4)cc3c2C(C)C)cc2c(O)c(C#N)cnc12 [Example 107, 4-hydroxy-6-(3-isopropyl-5-(piperidin-4-yl)-1H-indol-2-yl)-8-methylquinoline-3-carbonitrile] | 1 to 50 | > 3.13 | 1 to 50 |
| COc1cc(-c2[nH]c3ccc(C4CCN(C(=O)CN(C)C)CC4)cc3c2C(C)C)cc2nc(C)nn12 [Example 496, 2-(dimethylamino)-1-(4-(3-isopropyl-2-(5-methoxy-2-methyl-[1,2,4]triazolo[1,5-a]pyridin-7-yl)-1H-indol-5-yl)piperidin-1-yl)ethan-1-one] | < 0.1 | < 0.1 | 1 to 50 |
